Experiments:
[1] = target: T1, Progesterone Receptor (PR) (Homo sapiens, UniProt P06401); experiment: In vitro functional assay for progesterone receptor (PR) antagonists: inhibition of progesterone-induced alkaline phosphatase expression in T47D cells; type: cell-based; conditions: antagonist format, 5 nM progesterone, Ki calculated from IC50 with the Cheng-Prusoff equation
T1 construct: endogenous in cells; host or cells: T47D human breast mammary carcinoma cells
T1 sequence (P06401 1-933): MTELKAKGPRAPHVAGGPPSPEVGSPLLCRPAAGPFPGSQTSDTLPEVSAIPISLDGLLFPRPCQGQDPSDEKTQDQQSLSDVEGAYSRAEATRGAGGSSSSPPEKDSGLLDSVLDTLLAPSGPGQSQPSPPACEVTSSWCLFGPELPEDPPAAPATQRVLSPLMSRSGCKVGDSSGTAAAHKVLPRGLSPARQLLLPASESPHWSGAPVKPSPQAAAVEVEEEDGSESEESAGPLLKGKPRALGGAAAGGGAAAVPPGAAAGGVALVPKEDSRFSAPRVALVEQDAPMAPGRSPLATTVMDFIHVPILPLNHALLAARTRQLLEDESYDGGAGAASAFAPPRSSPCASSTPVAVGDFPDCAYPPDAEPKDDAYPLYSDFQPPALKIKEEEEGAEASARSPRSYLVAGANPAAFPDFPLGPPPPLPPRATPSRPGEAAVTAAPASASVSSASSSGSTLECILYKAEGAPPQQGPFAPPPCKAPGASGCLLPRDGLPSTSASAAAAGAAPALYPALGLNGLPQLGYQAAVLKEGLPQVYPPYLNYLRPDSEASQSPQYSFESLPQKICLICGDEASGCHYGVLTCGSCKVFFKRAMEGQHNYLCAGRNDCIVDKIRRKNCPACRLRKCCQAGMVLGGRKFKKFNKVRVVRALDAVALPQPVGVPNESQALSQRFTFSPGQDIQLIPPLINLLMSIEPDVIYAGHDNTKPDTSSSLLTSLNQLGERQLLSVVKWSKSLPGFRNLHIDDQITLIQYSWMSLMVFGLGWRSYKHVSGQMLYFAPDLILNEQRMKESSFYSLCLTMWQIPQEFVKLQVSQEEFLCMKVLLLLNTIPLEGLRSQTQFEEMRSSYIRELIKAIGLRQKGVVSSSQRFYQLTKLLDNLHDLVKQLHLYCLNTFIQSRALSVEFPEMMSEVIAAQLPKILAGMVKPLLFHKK
In short: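 Antagonist format: T47D cells (8750/well, phenol red-free DMEM + 5% CS-FCS) given half-log compound dilutions plus 5 nM progesterone (final), incubated overnight (≥16 h) at 37 °C. Alkaline phosphatase read by CSPD chemiluminescence after freeze-thaw lysis; 0.1 μM RU-486 final defines minimum.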

[2] = system: ovarian cancer patients; conditions: RU486 200 mg/day; ovarian cancer patients refractory to cisplatin and paclitaxel; cited from earlier work
[3] = system: Brca1/p53-deficient mice; conditions: treatment of Brca1/p53-deficient mice; cited from earlier work

Row | SMILES | Ki [1] [nM] | patients with a clinical response [2] [%] | effect on mammary tumorigenesis [3]
1 | CC(C)n1nc(-c2ccc(C#N)cc2)c(Cl)c1C(=O)NC1CC1 [Example 132] | 17.8 | – | –
2 | CC(C)n1nc(-c2ccc(C#N)cc2)c(C#N)c1C(=O)NC[C@@H](C)O [Example 133] | 19.3 | – | –
3 | CC(C)n1nc(-c2ccc(C#N)cc2)c(C#N)c1C(=O)NCC(C)(C)O [Example 134] | 21.9 | – | –
4 | CC#C[C@]1(O)CC[C@H]2[C@@H]3CCC4=CC(=O)CCC4=C3[C@@H](c3ccc(N(C)C)cc3)C[C@@]21C [RU486, mifepristone] | – | 26.5 | prevented mammary tumorigenesis

Further lines, with some results ahead:

Row | Ki [1] [nM] | SMILES | patients with a clinical response [2] [%] | effect on mammary tumorigenesis [3]
5 | 11.9 | Cc1cc(-c2nn(C(C)C)c(C(=O)NC[C@@H](C)O)c2C#N)ccc1C#N [Example 128] | – | –
6 | 13.2 | CC(C)n1nc(-c2ccc(C#N)cc2)c(Cl)c1C(=O)NC[C@H](C)O [Example 129] | – | –
7 | 14.8 | CCc1c(-c2ccc(C#N)cc2)nn(C(C)CC)c1C(=O)NCC(C)(C)O (centres unmarked) [Example 130] | – | –

Source: patent publication US8232269B2, “Amide compounds useful in therapy” (Pfizer Inc., priority 2008, dated 2012)
